Assay results: ChEMBL document CHEMBL3638512, “Piperazine compounds” (2013)

Molecular target: T1, Cathepsin K (Homo sapiens, UniProt P43235)
T1 sequence (P43235 whole entry): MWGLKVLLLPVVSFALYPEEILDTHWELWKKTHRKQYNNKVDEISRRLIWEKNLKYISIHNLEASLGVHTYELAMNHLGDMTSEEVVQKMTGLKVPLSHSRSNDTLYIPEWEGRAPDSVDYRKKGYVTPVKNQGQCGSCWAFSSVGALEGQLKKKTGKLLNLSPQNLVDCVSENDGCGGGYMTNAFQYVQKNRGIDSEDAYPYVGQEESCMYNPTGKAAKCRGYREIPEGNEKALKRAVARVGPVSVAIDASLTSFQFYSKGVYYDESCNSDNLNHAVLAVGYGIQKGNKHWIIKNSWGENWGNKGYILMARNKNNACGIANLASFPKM
Assay: In Vitro Inhibition Assay: In vitro cathepsin inhibition assay.

`C[C@H]1CN(C(=O)[C@@H](NC(=O)c2ccc(N3CCN(C)CC3)cc2)C(C)(C)C)[C@@H]2C(=O)CO[C@@H]21` was tested, and the Ki was 1.1 nM.
